Laboratory results: patent US9562057B2, “(Thieno[2,3-b][1,5]benzoxazepin-4-yl)piperazin-1-yl compounds as dual activity H1 inverse agonists/5-HT2A antagonists” (Eli Lilly and Company, priority 2013, dated 2017)
Where a name gives a salt, the structure may show the parent alone.

Legend:
male Wistar rats = experiment: Sleep and behavioral monitoring in rats (EEG, EMG, motion); assay type: in vivo; details: for Rebound Insomnia Adj. Mean: NREM+REM sleep in 7th-9th hours post-treatment; for Rebound Insomnia Adj. Mean / Cumulative Total sleep Adj. Mean / REM inhibition Adj. Mean / Cumulative NREM sleep Adj. Mean / Locomotor Activity Intensity Adj. Mean: adjusted difference from vehicle; for Cumulative Total sleep Adj. Mean: NREM+REM; for Cumulative Total sleep Adj. Mean / Average Sleep Bout Adj. Mean / Longest Sleep Bout Adj. Mean / Cumulative NREM sleep Adj. Mean / Locomotor Activity Intensity Adj. Mean: first 6 hr. post-treatment; for REM inhibition Adj. Mean: cumulative REM sleep, first 12 hr. post-treatment
Description: The compound of the present invention is tested in rats for its ability to increase the amount of sleep or decrease sleep interruption or both without undesired effects such as inhibition of REM sleep, waking motor impairment, and/or rebound insomnia. Test animals are continuously monitored by electro-encephalograms (EEG), electromyograms (EMG), and motion to measure cumulative nonREM sleep, cumulative total sleep, average sleep bout duration, longest sleep bout duration, rebound insomnia, REM sleep inhibition and locomotor activity intensity during wakefulness. Methods for such studies are known in the art (see for example methods described in Edgar D M, Seidel W F. Modafinil induces wakefulness without intensifying motor activity or subsequent rebound hypersomnolence in the rat. J Pharmacology & Experimental Therapeutics 1997; 283: 757-769; van Gelder R N, Edgar D M, Dement W C. Real-time automated sleep scoring: validation of a microcomputer-based system for mice. Sleep 1991, 14: 48-55; and Gross B A, Walsh C M, Turakhia A A, Booth V, Mashour G A, Poe G R. Open-source logic-based automated sleep scoring software using electrophysiological recordings in rats. J Neurosci Methods. 2009; 184(1):10-8.) Studies are conducted as follows:
Adult, male Wistar rats (approximately 270-300 g at time of surgery) are surgically fitted for chronic recording of EEG, EMG, and motion as follows: Rats are surgically prepared with a cranial implant consisting of four stainless steel screws for EEG recording (two frontal [3.9 mm anterior from bregma, and ±2.0 mm mediolaterally] and two occipital [6.4 mm posterior from bregma, ±5.5 mm mediolaterally]), and with two Teflon-coated stainless steel wires for EMG recording (positioned under the nuchal trapezoid muscles). All leads are soldered to a miniature connector (Microtech, Boothwyn, Pa.) prior to surgery. The implant assembly is affixed to the skull by the combination of the stainless steel EEG recording screws, cyanoacrylate applied between the implant connector and skull, and dental acrylic. Locomotor activity is monitored via a miniature transmitter (Minimitter PDT4000G, Philips Respironics, Bend, Oreg.) surgically placed into the abdomen. At least 3 weeks are allowed for recovery.
Each rat is housed individually within a microisolator cage modified with an inserted polycarbonate filter-top riser to allow more vertical headroom. A flexible cable that minimally restricts movement is connected at one end to a commutator afixed to the cage top and at the other end to the animal's cranial implant. Each cage is located within separate, ventilated compartments of a stainless steel sleep-wake recording chamber. Food and water are available ad libitum and the ambient temperature is maintained at about 23±1° C. A 24-hr light-dark cycle (LD 12:12) using fluorescent light is maintained throughout the study. Relative humidity averages approximately 50%. Animals are undisturbed for at least 30 his before and after each treatment.
The vehicle (placebo, methylcellulose 15 centipoise 0.25% in water) or one of the test compound dose levels is administered orally at 1 mL/kg pseudo-randomly such that no rat receives the same treatment twice, and no rat receives more than two of the 8 treatments in any one study. Each rat is removed from its cage for about a minute to be weighed and treated. At least 6 days “washout” period precede and follow each treatment. […]

native GABAA receptors = experiment: GABAA antagonism using native receptors in primary neuronal cultures (FLIPR calcium flux); assay type: cell-based; details: against 10 μM GABA, rat cortical embryonic neurons
Description: Activity of compounds on native GABAA receptors is evaluated by monitoring calcium fluxes using a 96 well format FLIPR® system (Fluorometric Imaging Plate Reader (FLIPR®, Molecular Devices). Briefly, cortical embryonic neurons are dissociated from E18 rat embryos and plated at optimum density into black-walled, transparent bottom poly-D-lysine coated 96-well FLIPR® plates. After loading the cells with a calcium sensitive dye (Fluo4-AM, Molecular Devices), the cells are bathed in a solution containing low chloride (chloride replaced by gluconate). Under these conditions activation of GABAA receptors causes an efflux of chloride ions (in the direction of the chemical gradient), which results in membrane depolarization and consequently activation of voltage gated calcium channels (VGCCs). Calcium influx through VGCCs is recorded and analysed offline using the FLIPR® system. For a pharmacological validation of the assay, concentration response curves (CRC) are recorded for the standard agonist (GABA) and standard antagonist (Gabazine). […]
The antagonist effects of compounds are quantified using 10-point dose response curves by comparing the peak fluorescent responses to the agonist GABA in the presence and absence of compound. […] Antagonist effects are calculated as a percent of the assay window. […]

[1] = threshold efficacy dose, 6 hr. after treatment, 4 parameter logistic regression, freebase
[2] = within 10 times the most conservative efficacy dose (0.78 mg/kg)

`Cc1ccc2c(c1)Oc1sc(C3CC3)cc1C(N1CCN(CC(C)(C)C(=O)O)CC1)=N2` [Example 2, 3-[4-(2-Cyclopropyl-8-methyl-thieno[2,3-b][1,5]benzoxazepin-4-yl)piperazin-1-yl]-2,2-dimethyl-propanoic acid dihydrochloride] was tested, and the “Rebound Insomnia Adj. Mean” value (male Wistar rats; 0.025 mg/kg PO) was 0.40 min, the “Cumulative Total sleep Adj. Mean” value (male Wistar rats; 0.025 mg/kg PO) was 3.6 min and the “REM inhibition Adj. Mean” value (male Wistar rats; 0.025 mg/kg PO) was 5.0 min. The “Average Sleep Bout Adj. Mean” value (male Wistar rats; 0.025 mg/kg PO) was 1.08 n-fold increase over vehicle controls, the “Longest Sleep Bout Adj. Mean” value (male Wistar rats; 0.025 mg/kg PO) was 1.26 n-fold increase over vehicle controls and the “Cumulative NREM sleep Adj. Mean” value (male Wistar rats; 0.025 mg/kg PO) was -2.3 min. For the same compound, the “Locomotor Activity Intensity Adj. Mean” value (male Wistar rats; 0.025 mg/kg PO) was −1.40 LMA counts per minute of EEG-defined wakefulness, the “Rebound Insomnia Adj. Mean” value (male Wistar rats; 0.1 mg/kg PO) was -0.027 min and the “Cumulative Total sleep Adj. Mean” value (male Wistar rats; 0.1 mg/kg PO) was 16.9 min. For the same compound, the “REM inhibition Adj. Mean” value (male Wistar rats; 0.1 mg/kg PO) was -0.71 min, the “Average Sleep Bout Adj. Mean” value (male Wistar rats; 0.1 mg/kg PO) was 1.19 n-fold increase over vehicle controls and the “Longest Sleep Bout Adj. Mean” value (male Wistar rats; 0.1 mg/kg PO) was 1.07 n-fold increase over vehicle controls. For the same compound, the “Cumulative NREM sleep Adj. Mean” value (male Wistar rats; 0.1 mg/kg PO) was 15.4 min, the “Locomotor Activity Intensity Adj. Mean” value (male Wistar rats; 0.1 mg/kg PO) was 0.41 LMA counts per minute of EEG-defined wakefulness and the “Rebound Insomnia Adj. Mean” value (male Wistar rats; 0.25 mg/kg PO) was 2.2 min. For the same compound, the “Cumulative Total sleep Adj. Mean” value (male Wistar rats; 0.25 mg/kg PO) was 23.0 min, the “REM inhibition Adj. Mean” value (male Wistar rats; 0.25 mg/kg PO) was 2.8 min and the “Average Sleep Bout Adj. Mean” value (male Wistar rats; 0.25 mg/kg PO) was 1.34 n-fold increase over vehicle controls. For the same compound, the “Longest Sleep Bout Adj. Mean” value (male Wistar rats; 0.25 mg/kg PO) was 1.55 n-fold increase over vehicle controls, the “Cumulative NREM sleep Adj. Mean” value (male Wistar rats; 0.25 mg/kg PO) was 19.1 min and the “Locomotor Activity Intensity Adj. Mean” value (male Wistar rats; 0.25 mg/kg PO) was −0.31 LMA counts per minute of EEG-defined wakefulness. For the same compound, the “Rebound Insomnia Adj. Mean” value (male Wistar rats; 0.5 mg/kg PO) was -5.0 min, the “Cumulative Total sleep Adj. Mean” value (male Wistar rats; 0.5 mg/kg PO) was 32.6 min and the “REM inhibition Adj. Mean” value (male Wistar rats; 0.5 mg/kg PO) was 2.3 min. The “Average Sleep Bout Adj. Mean” value (male Wistar rats; 0.5 mg/kg PO) was 1.59 n-fold increase over vehicle controls, the “Longest Sleep Bout Adj. Mean” value (male Wistar rats; 0.5 mg/kg PO) was 1.81 n-fold increase over vehicle controls and the “Cumulative NREM sleep Adj. Mean” value (male Wistar rats; 0.5 mg/kg PO) was 30.6 min. The “Locomotor Activity Intensity Adj. Mean” value (male Wistar rats; 0.5 mg/kg PO) was −1.30 LMA counts per minute of EEG-defined wakefulness, the “Rebound Insomnia Adj. Mean” value (male Wistar rats; 1 mg/kg PO) was -0.6 min and the “Cumulative Total sleep Adj. Mean” value (male Wistar rats; 1 mg/kg PO) was 33.2 min. For the same compound, the “REM inhibition Adj. Mean” value (male Wistar rats; 1 mg/kg PO) was 1.2 min, the “Average Sleep Bout Adj. Mean” value (male Wistar rats; 1 mg/kg PO) was 1.60 n-fold increase over vehicle controls and the “Longest Sleep Bout Adj. Mean” value (male Wistar rats; 1 mg/kg PO) was 2.16 n-fold increase over vehicle controls. The “Cumulative NREM sleep Adj. Mean” value (male Wistar rats; 1 mg/kg PO) was 31.0 min, the “Locomotor Activity Intensity Adj. Mean” value (male Wistar rats; 1 mg/kg PO) was −2.33 LMA counts per minute of EEG-defined wakefulness and the “Rebound Insomnia Adj. Mean” value (male Wistar rats; 3 mg/kg PO) was 1.6 min. For the same compound, the “Cumulative Total sleep Adj. Mean” value (male Wistar rats; 3 mg/kg PO) was 31.6 min, the “REM inhibition Adj. Mean” value (male Wistar rats; 3 mg/kg PO) was 0.042 min and the “Average Sleep Bout Adj. Mean” value (male Wistar rats; 3 mg/kg PO) was 1.92 n-fold increase over vehicle controls. The “Longest Sleep Bout Adj. Mean” value (male Wistar rats; 3 mg/kg PO) was 2.16 n-fold increase over vehicle controls, the “Cumulative NREM sleep Adj. Mean” value (male Wistar rats; 3 mg/kg PO) was 30.1 min and the “Locomotor Activity Intensity Adj. Mean” value (male Wistar rats; 3 mg/kg PO) was 0.01 LMA counts per minute of EEG-defined wakefulness. The “Rebound Insomnia Adj. Mean” value (male Wistar rats; 10 mg/kg PO) was 3.3 min, the “Cumulative Total sleep Adj. Mean” value (male Wistar rats; 10 mg/kg PO) was 26.3 min and the “REM inhibition Adj. Mean” value (male Wistar rats; 10 mg/kg PO) was -7.3 min. For the same compound, the “Average Sleep Bout Adj. Mean” value (male Wistar rats; 10 mg/kg PO) was 1.56 n-fold increase over vehicle controls, the “Longest Sleep Bout Adj. Mean” value (male Wistar rats; 10 mg/kg PO) was 2.12 n-fold increase over vehicle controls and the “Cumulative NREM sleep Adj. Mean” value (male Wistar rats; 10 mg/kg PO) was 26.9 min. The “Locomotor Activity Intensity Adj. Mean” value (male Wistar rats; 10 mg/kg PO) was −0.89 LMA counts per minute of EEG-defined wakefulness, the “REM sleep inhibition (in words)” value (male Wistar rats; at 3 mg/kg) was “without significant” and the “cumulative NREM sleep time (in words)” value (male Wistar rats; at 3 mg/kg) was “significantly increase”. The “cumulative total sleep time (in words)” value (male Wistar rats; at 3 mg/kg) was “significantly increase”, the “inhibition of locomotor intensity (LMI) (in words)” value (male Wistar rats; at 3 mg/kg) was “without significant” and the “rebound insomnia (in words)” value (male Wistar rats; at 3 mg/kg) was “without significant”. For the same compound, the “REM sleep inhibition versus threshold value” (male Wistar rats; at 10 mg/kg, threshold −10 min. cumulative REM sleep (lower confidence limit)) was “exceeds the threshold value”, the “change in awake time following treatment (dose response curve, FIG. 2)” value (male Wistar rats; dose response) was “does not result in rebound insomnia” and the “change in cumulative REM sleep time (dose response curve, FIG. 1)” value (male Wistar rats; dose response) was “does not inhibit REM sleep”. The “change in distances moved during periods of wakefulness (dose response curve, FIG. 3)” value (male Wistar rats; dose response) was “does not inhibit or stimulate normal activity”, the “Estimated efficacy dose (mg/kg), NREM accumulation = 30 min.” value (male Wistar rats; [1]) was 0.78 mg/kg and the “Estimated efficacy dose (mg/kg), average sleep bout (1.5-fold increase)” value (male Wistar rats; [1]) was 0.33 mg/kg. For the same compound, the “Estimated efficacy dose (mg/kg), longest sleep bout (1.75-fold increase)” value (male Wistar rats; [1]) was 0.33 mg/kg, the “Estimated efficacy dose (mg/kg), total sleep accumulation = 25 min.” value (male Wistar rats; [1]) was 0.19 mg/kg and the “undesired occurrences of REM inhibition” value (male Wistar rats; [2]) was “no undesired occurrences”. For the same compound, the “undesired occurrences of rebound insomnia” value (male Wistar rats; [2]) was “no undesired occurrences”, the “undesired occurrences of reduction in LMI” value (male Wistar rats; [2]) was “no undesired occurrences” and the IC50 (native GABAA receptors) was over 100 µM.
